Source: patent US20090143471A1, “Process for the Atomization of Ioxilan” (GUERBET, priority 2006, published 2009)

Experiment: immediate solubility in water
Type: physicochemical
Settings: ambient or moderate temperature (typically from 20 to 40° C.)
Method: Another disadvantage of the prior process by crystallization was that, in order to obtain an appropriate concentration of active principle in the contrast agent, the dissolution of the crystalline compound B1 (solid crystalline ioxilan, denoted B1; compound B of FIG. 1 is compound B1) required heating at high temperature (80° C.). This is because the immediate solubility of B1 in water at ambient or moderate temperature (typically from 20 to 40° C.) was of the order of 50 mg of iodine/ml.
The atomized compound B2 is soluble at ambient or moderate temperature. It is possible, starting from the compound B2, to obtain an appropriate pharmaceutical solution without needing to heat at high temperature. The immediate solubility of B2 in water at ambient or moderate temperature, of the order of at least 500 mg of iodine/ml and typically of approximately 500 mg of iodine/ml, makes it possible to obtain an injected contrast agent having a concentration of 350 to 450 mg of iodine/ml, for example 350, 380 or 400 mg of iodine/ml.

immediate solubility in water: ~50 mg of iodine/ml
Compound: CC(=O)N(CC(O)CO)c1c(I)c(C(=O)NCCO)c(I)c(C(=O)NCC(O)CO)c1I (stereo not shown) [B1, 5-[N-(2,3-dihydroxypropyl)acetamido]-2,4,6-triiodo-N-(2,3-dihydroxypropyl)-N′-(2-hydroxyethyl)isophthalamide]
